#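 Five concentrations, 48 hours, 96-well plates. TGI: concentration producing complete growth inhibition.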
# What was measured:
# Experiment in all cases: growth of human tumour cells (NCI), 48 h
# OVCAR-8 ovarian = test system: OVCAR-8 ovarian
# UO-31 renal = test system: UO-31 renal
# A498 renal = test system: A498 renal
# BT-549 breast = test system: BT-549 breast
# MDA-N = test system: MDA-N
# HCC-2998 colon = test system: HCC-2998 colon
# SW-620 colon = test system: SW-620 colon
# CAKI-1 renal = test system: CAKI-1 renal
# HOP-92 NSCLC = test system: HOP-92 NSCLC
# 786-0 renal = test system: 786-0 renal
# SK-MEL-5 melanoma = test system: SK-MEL-5 melanoma
# DU-145 prostate = test system: DU-145 prostate
# NCI/ADR-RES ovarian = test system: NCI/ADR-RES ovarian
# MDA-MB-435 = test system: MDA-MB-435
# HS 578T breast = test system: HS 578T breast
# RPMI-8226 leukemia = test system: RPMI-8226 leukemia
# T-47D breast = test system: T-47D breast
# HL-60(TB) leukemia = test system: HL-60(TB) leukemia
# MALME-3M melanoma = test system: MALME-3M melanoma
# MCF7 breast = test system: MCF7 breast
# SN12C renal = test system: SN12C renal
# U251 CNS = test system: U251 CNS
# CCRF-CEM leukemia = test system: CCRF-CEM leukemia
# HOP-62 NSCLC = test system: HOP-62 NSCLC
# IGROV1 ovarian = test system: IGROV1 ovarian
# A549 NSCLC = test system: A549 NSCLC
# KM12 colon = test system: KM12 colon
# SNB-19 CNS = test system: SNB-19 CNS
# UACC-257 melanoma = test system: UACC-257 melanoma
# HCT-116 colon = test system: HCT-116 colon
# SK-MEL-2 melanoma = test system: SK-MEL-2 melanoma
# RXF 393 renal = test system: RXF 393 renal
# OVCAR-5 ovarian = test system: OVCAR-5 ovarian
# MDA-MB-231 breast = test system: MDA-MB-231 breast
# SR leukemia = test system: SR leukemia
# OVCAR-3 ovarian = test system: OVCAR-3 ovarian
# HT29 colon = test system: HT29 colon
# M14 melanoma = test system: M14 melanoma
# SF-268 CNS = test system: SF-268 CNS
# SF-295 CNS = test system: SF-295 CNS
# LOX IMVI melanoma = test system: LOX IMVI melanoma
# NCI-H23 lung = test system: NCI-H23 lung
# HCT-15 colon = test system: HCT-15 colon
# K-562 leukemia = test system: K-562 leukemia
# EKVX NSCLC = test system: EKVX NSCLC
# SK-MEL-28 melanoma = test system: SK-MEL-28 melanoma
# NCI-H226 lung = test system: NCI-H226 lung
# NCI-H460 lung = test system: NCI-H460 lung
# COLO 205 colon = test system: COLO 205 colon
# UACC-62 melanoma = test system: UACC-62 melanoma
# TK-10 renal = test system: TK-10 renal
# MOLT-4 leukemia = test system: MOLT-4 leukemia
# PC-3 prostate = test system: PC-3 prostate
# OVCAR-4 ovarian = test system: OVCAR-4 ovarian
# ACHN renal = test system: ACHN renal
# SK-OV-3 ovarian = test system: SK-OV-3 ovarian
# SNB-75 CNS = test system: SNB-75 CNS
# NCI-H522 lung = test system: NCI-H522 lung
# SF-539 CNS = test system: SF-539 CNS
smiles,measurement,setting,value
CCOC(=O)[C@@H](NC(=O)OC(C)(C)C)[C@@H](O)C(=O)OCC,TGI,OVCAR-8 ovarian,> 100 µM
same,TGI,UO-31 renal,> 100 µM
same,TGI,A498 renal,> 100 µM
same,TGI,BT-549 breast,> 100 µM
same,TGI,MDA-N,> 100 µM
same,TGI,HCC-2998 colon,> 100 µM
same,TGI,SW-620 colon,> 100 µM
same,TGI,CAKI-1 renal,> 100 µM
same,TGI,HOP-92 NSCLC,> 100 µM
same,TGI,786-0 renal,> 100 µM
same,TGI,SK-MEL-5 melanoma,> 100 µM
same,TGI,DU-145 prostate,> 100 µM
same,TGI,NCI/ADR-RES ovarian,> 100 µM
same,TGI,MDA-MB-435,> 100 µM
same,TGI,HS 578T breast,> 100 µM
same,TGI,RPMI-8226 leukemia,> 100 µM
same,TGI,T-47D breast,> 100 µM
same,TGI,HL-60(TB) leukemia,> 100 µM
same,TGI,MALME-3M melanoma,> 100 µM
same,TGI,MCF7 breast,> 100 µM
same,TGI,SN12C renal,> 100 µM
same,TGI,U251 CNS,> 100 µM
same,TGI,CCRF-CEM leukemia,> 100 µM
same,TGI,HOP-62 NSCLC,> 100 µM
same,TGI,IGROV1 ovarian,> 100 µM
same,TGI,A549 NSCLC,> 100 µM
same,TGI,KM12 colon,> 100 µM
same,TGI,SNB-19 CNS,> 100 µM
same,TGI,UACC-257 melanoma,> 100 µM
same,TGI,HCT-116 colon,> 100 µM
same,TGI,SK-MEL-2 melanoma,> 100 µM
same,TGI,RXF 393 renal,> 100 µM
same,TGI,OVCAR-5 ovarian,> 100 µM
same,TGI,MDA-MB-231 breast,> 100 µM
same,TGI,SR leukemia,> 100 µM
same,TGI,OVCAR-3 ovarian,> 100 µM
same,TGI,HT29 colon,> 100 µM
same,TGI,M14 melanoma,> 100 µM
same,TGI,SF-268 CNS,> 100 µM
same,TGI,SF-295 CNS,> 100 µM
same,TGI,LOX IMVI melanoma,> 100 µM
same,TGI,NCI-H23 lung,> 100 µM
same,TGI,HCT-15 colon,> 100 µM
same,TGI,K-562 leukemia,> 100 µM
same,TGI,EKVX NSCLC,> 100 µM
same,TGI,SK-MEL-28 melanoma,> 100 µM
same,TGI,NCI-H226 lung,> 100 µM
same,TGI,NCI-H460 lung,> 100 µM
same,TGI,COLO 205 colon,> 100 µM
same,TGI,UACC-62 melanoma,> 100 µM
same,TGI,TK-10 renal,> 100 µM
same,TGI,MOLT-4 leukemia,> 100 µM
same,TGI,PC-3 prostate,> 100 µM
same,TGI,OVCAR-4 ovarian,> 100 µM
same,TGI,ACHN renal,> 100 µM
same,TGI,SK-OV-3 ovarian,> 100 µM
same,TGI,SNB-75 CNS,> 100 µM
OCC(O)COCn1cc(Cn2ncc3c(NCc4ccccc4)ncnc32)nn1 (stereo unspecified),TGI,OVCAR-8 ovarian,> 100 µM
same,TGI,UO-31 renal,> 100 µM
same,TGI,A498 renal,> 100 µM
same,TGI,NCI-H522 lung,33.4 µM
same,TGI,BT-549 breast,> 100 µM
same,TGI,MDA-N,> 100 µM
same,TGI,HCC-2998 colon,> 100 µM
same,TGI,SW-620 colon,> 100 µM
same,TGI,CAKI-1 renal,> 100 µM
same,TGI,HOP-92 NSCLC,> 100 µM
same,TGI,786-0 renal,> 100 µM
same,TGI,SK-MEL-5 melanoma,> 100 µM
same,TGI,DU-145 prostate,> 100 µM
same,TGI,NCI/ADR-RES ovarian,> 100 µM
same,TGI,MDA-MB-435,> 100 µM
same,TGI,HS 578T breast,47.9 µM
same,TGI,RPMI-8226 leukemia,> 100 µM
same,TGI,T-47D breast,> 100 µM
same,TGI,HL-60(TB) leukemia,> 100 µM
same,TGI,MCF7 breast,> 100 µM
same,TGI,SN12C renal,> 100 µM
same,TGI,U251 CNS,> 100 µM
same,TGI,CCRF-CEM leukemia,> 100 µM
same,TGI,HOP-62 NSCLC,> 100 µM
same,TGI,IGROV1 ovarian,> 100 µM
same,TGI,A549 NSCLC,> 100 µM
same,TGI,KM12 colon,> 100 µM
same,TGI,SNB-19 CNS,> 100 µM
same,TGI,UACC-257 melanoma,> 100 µM
same,TGI,HCT-116 colon,> 100 µM
same,TGI,SK-MEL-2 melanoma,> 100 µM
same,TGI,OVCAR-5 ovarian,> 100 µM
same,TGI,MDA-MB-231 breast,> 100 µM
same,TGI,SR leukemia,> 100 µM
same,TGI,OVCAR-3 ovarian,> 100 µM
same,TGI,HT29 colon,> 100 µM
same,TGI,M14 melanoma,> 100 µM
same,TGI,SF-268 CNS,32.8 µM
same,TGI,SF-295 CNS,> 100 µM
same,TGI,LOX IMVI melanoma,> 100 µM
same,TGI,SF-539 CNS,> 100 µM
same,TGI,NCI-H23 lung,> 100 µM
same,TGI,HCT-15 colon,> 100 µM
same,TGI,EKVX NSCLC,> 100 µM
same,TGI,SK-MEL-28 melanoma,> 100 µM
same,TGI,NCI-H226 lung,> 100 µM
same,TGI,COLO 205 colon,> 100 µM
same,TGI,UACC-62 melanoma,> 100 µM
same,TGI,TK-10 renal,> 100 µM
same,TGI,MOLT-4 leukemia,> 100 µM
same,TGI,PC-3 prostate,> 100 µM
same,TGI,OVCAR-4 ovarian,> 100 µM
same,TGI,ACHN renal,> 100 µM
same,TGI,SK-OV-3 ovarian,> 100 µM
